Values quoted from earlier work as cited in patent US6607711B2, “Mouth hygienic composition for the treatment of halitosis” (priority 1997, dated 2003).

Settings: amount in grams of the compound which can be dissolved per gram solvent (H2O)

[Cl-].[Cl-].[Zn+2] [Zinc chloride]
Solubility (g/g H2O): 4.3 g/g H2O
